{"source": "patent US20130217132A1", "about": "“METHODS, COMPOSITIONS AND USE FOR ENHANCING CHEMICAL TOLERANCE BY MICROORGANISMS” (priority 2009, published 2013)", "key": {"MG1655 E. coli strain": {"test_system": "MG1655 E. coli strain", "assay": "Minimum inhibitory concentration (MIC) assay of furfural in MOPS minimal media", "type": "cell-based", "settings": "Escherichia coli", "method": "(§1) In one exemplary method, assays were performed to determine minimum inhibitory concentration (MIC) of ethanol, furfural and acetate for BW25113 and MG1655 E. coli strains. […] Cells from each strain were inoculated from the same optical density into a total of 100 μL of varying furfural concentrations in a minimal media, for example using MOPS. Cell growth in the first 24 hr or 48 hr in the presence of furfural was monitored. The left bar in each pair for each indicated strain represents a first concentration of furfural that inhibited bacterial growth after 24 hr. The right bar for each strain represents the first concentration that inhibited growth after 48 hr. The MIC reads were the average of triplicates (n=3), and error bars represent standard deviation. […] ArecA signifies strains where the gene has been knocked out as previously described.\n(§2) The minimum inhibitory concentration (MIC) of furfural of MG1655 and BW25113 with or without lpcA overexpression was determined. MIC assays were performed as described in Example 13. […] MIC reads were average of triplicates (n=3), and error bars represent standard deviation. The SDS-PAGE gel image in FIG. 17C represents LPS level of the cells indicated above the gel image (duplicate of each cell sample was presented). LPS was extracted from the indicated cells grown to exponential phase. Loading of LPS the SDS-PAGE gel was normalized to the cell number. The gel was stained for visualization after desired separation of LPS was obtained."}, "BW25113 ArecA pLPCA": {"test_system": "BW25113 ArecA pLPCA", "assay": "MIC assay of furfural, lpcA overexpression strain", "type": "cell-based, E. coli", "settings": "Escherichia coli", "method": "as §1, §2\nIn another exemplary method, MIC was determined when MG1655 and BW25113 strains were fed with various carbon sources. MIC assays were performed in the presence of furfural. Glucose, Xylose or Ribose was supplemented with a minimal media for cell growth. […] MICs were read at the indicated time (24 hr or 48 hr), the average of triplicates was presented and error bars represent standard deviation. ‘Blank vector’ refers to the pBTL-1 vector, which served as the control. […]"}}, "note": "Like-named read-outs stand apart in the source and are kept apart here.", "data": [{"smiles": "O=Cc1ccco1", "note": "[furfural, furan-2-carbaldehyde]", "values": [{"measurement": "MIC", "setting": "MG1655 E. coli strain; MG1655, read-out: MIC of furfural", "value": 1250, "unit": "µg/mL"}, {"measurement": "MIC", "setting": "MG1655 E. coli strain; MG1655, after 24 hr, n=3, read-out: MIC (first concentration of furfural that inhibited bacterial growth)", "value": 1200, "unit": "µg/mL"}, {"measurement": "MIC", "setting": "MG1655 E. coli strain; MG1655, after 48 hr, n=3, read-out: MIC (first concentration of furfural that inhibited bacterial growth)", "value": 1800, "unit": "µg/mL"}, {"measurement": "MIC", "setting": "BW25113 ArecA pLPCA; BW25113, read-out: MIC of furfural, BW25113 ArecA pLPCA, FIG. 17C", "value": 1250, "unit": "µg/mL"}, {"measurement": "MIC", "setting": "BW25113 ArecA pLPCA; BW25113, read-out: MIC of furfural, pLPCA, glucose as carbon source, FIG. 18B", "value": 1250, "unit": "µg/mL"}, {"measurement": "MIC", "setting": "BW25113 ArecA pLPCA; BW25113, read-out: MIC of furfural, pLPCA, xylose as carbon source, FIG. 18B", "value": 1000, "unit": "µg/mL"}]}]}
